Test results as given in patent US20080044491A1, “METAL-CONTAINING FORMULATIONS AND METHODS OF USE” (priority 2006, published 2008).
Values after ≈ are worked out from the molar mass of the structure shown. “Also recorded” adds a separate entry of the source.

Legend:
[1] = Compatibility of nanocrystalline silver with excipients; format: physicochemical; conditions: 10% aqueous solution of excipient with nanocrystalline silver, glass vial, 40° C. overnight
Enterobacter cloacae = assay: MIC assay (microdilution); format: cell-based; conditions: Ent. cloacae
Escherichia coli = assay: MIC assay (microdilution); format: cell-based
DNBS-induced colitis [2] = assay: DNBS-induced colitis in rat: total IBD score; format: in vivo
Description: Sulfasalazine (Sigma Chemicals, St Louis, Mo.), at a concentration of 120 mg/ml for intracolonic treatment and 30 mg/ml for oral treatment was used as the reference drug in all the experiments. Sulfasalazine was first dissolved in 0.1M NaOH at a concentration about 30-fold higher than the required final concentration, and then suspended in 1.5% PVA for oral dosing and 5.7% PVA for intracolonic dosing.
One group was not treated and served as no treatment group. Treatment began one day after administration of DNBS.
Macroscopic Observations: Body weight was recorded daily and the animals were examined for their physical appearance. After five days of treatment, animals were sacrificed. The colon was excised between the ileocecal junction and rectum, and opened longitudinally. After scoring of the consistency of the stool the colon was rinsed in normal saline, examined and thickness of the colonic wall and number and size of ulcers were scored. Stool consistency was graded on a scale of 0-3: 0=normal stool, well formed pellets rigid as normal; 1=loose stool, formed pellet with moisture, soft stool keeping in stool shape; 2=loose stool, stools that have abnormal form with much moisture, softer shapeless stool; 3=watery or bloody diarrhea.
Thickness of colonic wall was graded on a scale of 0-4: 0=normal, no thickness; 1=mild thickness in lower portion of the colon; 2=moderate thickness in localized area; 3=moderate thickness extending to the central portion of the colon; 4=severe thickness in the whole colon. Colonic ulceration was graded on a scale of 0-10: 0=no ulcers; 1=one small ulcer less than 2-3 mm; 2=one large ulcer more than 2-3 mm; 3=two large ulcerations more than 2-3 mm in diameter; 4=two or more sites of ulcerations extending 1 cm along the length; 5-10=when an area of ulceration extended more than 1 cm along the length of the colon, the score increases by 1 for each additional cm of involvement. The total IBD score, obtained by the sum of the scores of colonic ulcer, colon thickness and stool consistency for each animal, was calculated for each treatment group.
Statistical Analysis: The results are expressed as the mean ±SE. The statistical significance in the mean total IBD score, histopathological inflammation score, and the immunohistochemical staining of cytokines or MMP-9 was determined using Tukey-Kramer's multiple comparison tests following one-way analysis of variance (ANOVA). The data were calculated with the aid of Instat Graph Pad Software. Differences with a P value less than 0.05 were considered significant.
Methods: Colitis was induced in rats using DNBS as described in Example 25. Animals were treated intracolonically (250 μl of the test reagents) once a day for five days. […] Methods: Colitis was induced in rats using DNBS as described in Example 25. Animals were treated intracolonically (250 μl of the test reagents) once a day for five days.

[3] = DNBS-induced colitis in rat: body weight change; format: in vivo; conditions: rats with DNBS-induced colitis (FIGS. 10, 11)
Text: Animals: Male Sprague-Dawley rats, weighing approximately 250-300 gm were purchased from Charles River Laboratories (Raleigh, N.C.). The animals were housed under standard conditions with free access to food and water. They were acclimatized for 2-3 days before commencing the experiments. The study protocol was approved by the Institutional Animal Care and Use Committees (IACUC).
Induction of ulcerative colitis: Colitis was produced according to published methods. Animals were anesthetized by intraperitoneal injection of 75 mg/kg of ketamine plus 5 mg/kg of xylazine. A single intracolonic injection of 120 mg/ml of dinitrobenzenesulfonic acid (DNBS) (Sigma Chemicals, St. Louis, Mo.) in 250 micro liter of 50% ethanol was administered through a Tom Cat catheter (Kendall Sovereign, Mansfield, Mass.) with a closed-end tip, connected to a 1 ml syringe and placed 7 cm proximal to the anus. Lubricant was applied to the tip of the catheter before injection, to protect from mucosal injury. After instillation of DNBS, 0.5 ml of air was insufflated and the catheter was removed. […]
Macroscopic Observations: Body weight was recorded daily and the animals were examined for their physical appearance. […] After scoring of the consistency of the stool the colon was rinsed in normal saline, examined and thickness of the colonic wall and number and size of ulcers were scored. […]

DNBS-induced colitis [4] = assay: DNBS-induced colitis in rat: histopathological inflammation score of colon; format: in vivo; conditions: oral, 100 mg/kg, five days
Description: Histopathology: A piece of colonic tissue at 2-4 cm proximal to the anus was excised and fixed in 10% formalin and the sections were stained with hematoxylin and eosin. The remaining length of the colonic tissues was stored at −80° C. for subsequent biochemical assays. The histology slides were examined by a veterinary pathologist who was blinded to the treatment groups. The extent of microscopic mucosal damage of the colon was scored on scale of 0-5 as described with slight modification: 0=normal histological appearance; 1=histological damage limited to surface epithelium, mild infiltration of the submucosa; 2=focal ulceration and cell disruption limited to mucosa, abnormal appearance of colonic wall, mild infiltration of inflammatory cells; 3=focal, transmural inflammation and ulceration, with mild to moderate infiltration of inflammatory cells; 4=Extensive transmural ulceration and inflammation bordered by areas of normal mucosa, moderate infiltration of inflammatory cells; 5=extensive transmural ulceration and inflammation involving entire section from epithelium to serosa, severe infiltration of inflammatory cells.
Statistical Analysis: The results are expressed as the mean ±SE. […] The data were calculated with the aid of Instat Graph Pad Software. […]

IL-1β = assay: Immunohistochemical staining of colonic tissue; format: in vivo, rat; conditions: DNBS colitis, five days oral treatment
Description: (§1) Immunohistochemistry: A Universal Streptavidin/Biotin detection system (Thermo Shandon, Pittsburgh, Pa.) was used for immunohistochemical staining of formalin fixed, paraffin embedded biopsies of the colon. After dewaxing, and hydration, sections were treated with protein blocking agent to reduce non-specific binding of antibodies. The tissues were then incubated with rabbit anti-rat TNF-α, or mouse anti-rat IL-12 p70 antibodies (Biosource International, Inc, Camarillo, Calif.); rabbit anti-rat IL-1β (Serotec, Raleigh, N.C.) or rabbit anti-rat MMP-9 antibody (Chemicon International, Telecuma, Calif.) in 1% bovine serum albumin in phosphate buffered saline. Incubations with secondary antibodies, streptavidin/biotin, and chromogenic detection of peroxidase were performed according to the manufacturer's protocol. Sections were counterstained, dehydrated, mounted and examined. The intensity of the immuno-peroxidase staining was graded as described previously. Expression of cytokines was graded as: 0, no staining in the section; 1, less than 25% of the section; 2, 25-50% of the section; 3, 50-75% of the section; 4, >75% of the section with significant staining.

MMP-9 [5] = assay: Immunohistochemical staining of colonic tissue; format: in vivo, rat; conditions: vs placebo and no treatment (FIG. 19)
Description: as §1

TNF-α = assay: Immunohistochemical staining of colonic tissue; format: in vivo, rat; conditions: DNBS colitis, five days oral treatment
Description: as §1

MMP-9 [6] = assay: Gelatin zymography of colonic homogenates; format: in vivo, rat; conditions: oral 100 mg/kg
Description: Gelatin Zymography: Activities of MMP-9 and MMP-2 in colonic tissue homogenates were determined by gelatin zymography as described previously. Briefly, colonic homogenates were mixed with equal volume of zymograph sample buffer. Samples were loaded on a 10% SDS-polyacrylamide gel containing 0.1% gelatin. After electrophoresis, the SDS was removed from the gel by incubation with renaturing buffer containing 2% Triton-X-100 for 1 hour. The gel was incubated overnight in developing buffer containing 50 mM Tris-HCl, pH 7.8, 5 mM CaCl2, 0.2 M NaCl, 0.02% Brij-35. The gel was subsequently stained with Coumassie blue for 30 minutes and destained with destaining solution containing 8% acetic acid and 4% methanol. Gelatinolytic activity was determined as transparent bands against the blue background of stained gelatin. MMPs were identified by their molecular weight compared with the standards. Absence of a transparent band on the gel was evidenced as no MMP-9 or MMP-2 activity of the sample tested.

Staphylococcus aureus = assay: MIC assay (microdilution); format: cell-based; conditions: lactate solutions, nanocrystalline silver = range for 12 samples
[7] = system: Staphylococcus epidermidis; assay: MIC assay (microdilution); format: cell-based; conditions: S. epiderm (ATCC); lactate solutions; nanocrystalline silver = range for 12 samples
Streptococcus pyogenes = assay: MIC assay (microdilution); format: cell-based; conditions: lactate solutions, nanocrystalline silver = range for 12 samples
Streptococcus pneumoniae = assay: MIC assay (microdilution); format: cell-based; conditions: lactate solutions, nanocrystalline silver = range for 12 samples
Pseudomonas aeruginosa = assay: MIC assay (microdilution); format: cell-based; conditions: lactate solutions, nanocrystalline silver = range for 12 samples
[8] = system: Mycobacterium tuberculosis H37Ra (ATCC 25177); format: cell-based

## OCc1ccccc1 [Benzyl alcohol]
[1]
  Reaction with nanocrystalline silver: Grey/slightly red

## CCCCCCCCCCCCCCCCCCO [Cetearyl alcohol]
[1]
  Reaction with nanocrystalline silver: Light brown/green/black

## CCCCCCCCCCCCCCCCO [Cetyl alcohol]
[1]
  Reaction with nanocrystalline silver: Grey color - no discoloration

## CCCCCCCCCCCCCCCCCC(=O)OCC(O)CO (stereo not drawn) [Glycerol monostearate]
[1]
  Reaction with nanocrystalline silver: Brown discoloration

## CCCCCCCCCCCCCC(=O)OC(C)C [Isopropyl myristate]
[1]
  Reaction with nanocrystalline silver: Grey color - no discoloration

## COC(=O)c1ccc(O)cc1 [Methylparaben]
[1]
  Reaction with nanocrystalline silver: Brown discoloration

## CC(O)CO (stereo not drawn) [Propylene glycol]
[1]
  Reaction with nanocrystalline silver: Discoloration

## CCCOC(=O)c1ccc(O)cc1 [Propylparaben]
[1]
  Reaction with nanocrystalline silver: Green discoloration

## OO [Sample H2O2, hydrogen peroxide]
[1]
  Reaction with nanocrystalline silver: Brown discoloration after drying
Enterobacter cloacae; Catalase/SOD +
  MIC: >500 µg/mL
Enterobacter cloacae; Catalase/SOD −
  MIC: 63 µg/mL (≈ 1850 µM)
Escherichia coli; E. coli, Catalase/SOD +
  MIC: >500 µg/mL
Escherichia coli; E. coli, Catalase/SOD −
  MIC: 31 µg/mL (≈ 911 µM)

## O=C([O-])c1ccccc1.[Na+] [Sodium benzoate]
[1]
  Reaction with nanocrystalline silver: White precipitate

## CCCCCCCCCCCCCCCCCC(=O)O [Stearic acid]
[1]
  Reaction with nanocrystalline silver: Grey color - no discoloration

## CCOCCOCCO [Transcutol, diethylene glycol monoethyl ether]
[1]
  Reaction with nanocrystalline silver: Grey color - no discoloration

## O=C(O)c1cc(/N=N/c2ccc(S(=O)(=O)Nc3ccccn3)cc2)ccc1O [sulfasalazine, salicylazosulfapyridine]
DNBS-induced colitis [2]; intracolonic, 100 mg/kg, five days
  total IBD score vs placebo: Significant reduction; also recorded: significantly reduced total IBD score
DNBS-induced colitis [2]; intracolonic, 100 mg/kg, five days, listed as Sulfasalazine
  total IBD score vs placebo: significantly reduced total IBD score
DNBS-induced colitis [2]; oral, 100 mg/kg, five days
  total IBD score: significant reduction
[3]
  body weight change: started gaining body weight after one day of treatment
DNBS-induced colitis [4]
  histopathological inflammation vs placebo and untreated: significantly reduced
IL-1β
  expression of IL-1β (immunohistochemical staining): significantly reduced the expression
MMP-9 [5]
  expression of MMP-9 (immunohistochemical staining): significantly reduced the expression
TNF-α
  expression of TNF-α (immunohistochemical staining): significantly reduced the expression
MMP-9 [6]
  MMP-9 activity (gelatin zymography): reduced MMP-9 activity

## Sodium parabens
[1]
  Reaction with nanocrystalline silver: Precipitation

## silver oxide [Ag2O]
Staphylococcus aureus; S. aureus (ATCC)
  MIC: 3 µg/mL
Staphylococcus aureus; S. aureus (clin.)
  MIC: 6 µg/mL
[7]
  MIC: 2 µg/mL
Streptococcus pyogenes; S. pyog (clin. 303)
  MIC: 2 µg/mL
Streptococcus pyogenes; S. pyog (clin. 304)
  MIC: 3 µg/mL
Streptococcus pneumoniae; S. pneumo (clin 314)
  MIC: 3 µg/mL
Streptococcus pneumoniae; S. pneumo (clin 315)
  MIC: 2 µg/mL
Pseudomonas aeruginosa; P. aerug (ATCC)
  MIC: 0.8 µg/mL
Pseudomonas aeruginosa; P. aerug. (clin.)
  MIC: 2 µg/mL
Escherichia coli; E. coli (ATCC), lactate solutions, nanocrystalline silver = range for 12 samples
  MIC: 0.8 µg/mL
[8]
  minimum inhibitory concentration (MIC): 2.5 μg/ml silver
DNBS-induced colitis [2]; intracolonic 250 μl once a day for five days, 0.25% homogenized
  total IBD score vs placebo: unable to show significant reduction
DNBS-induced colitis [2]; intracolonic 250 μl once a day for five days, 0.25% sonicated nanodispersion
  total IBD score vs placebo: but not 0.25% sonicated
DNBS-induced colitis [2]; intracolonic 250 μl once a day for five days, 0.5% homogenized
  total IBD score vs placebo: unable to show significant reduction
DNBS-induced colitis [2]; intracolonic 250 μl once a day for five days, 0.5% sonicated nanodispersion
  total IBD score vs placebo: significantly reduced the total IBD score
DNBS-induced colitis [2]; intracolonic 250 μl once a day for five days, 1.5% sonicated nanodispersion
  total IBD score vs placebo: significantly reduced the total IBD score
